Laboratory results: patent publication US20060228387A1, “Dihydronepetalactams and N-substituted derivatives thereof” (priority 2004, published 2006)

System: Aedes aegypti mosquitoes
Assay: in vitro Gupta box landing assay (insect repellency)
Settings: 20 min; 1% (w/v) in isopropyl alcohol, 25 μL on Baudruche membrane; female Aedes aegypti; landings over 20 min vs IPA control
Protocol: The products of Examples 1-15 were evaluated for insect repellency against Aedes aegypti mosqutioes in the in vitro Gupta box landing assay. In this method a chamber contained 5 wells, each covered by a Baudruche (animal intestine) membrane. Each well was filled with bovine blood containing sodium citrate (to prevent clotting) and ATP (72 mg ATP disodium salt per 26 ml of blood), and heated to 37° C. A volume of 25 μL of isopropyl alcohol (IPA) containing one test specimen or control was applied to each membrane. The concentrations of the dihydronepetalactam products were 1% (w/v) in IPA. The negative control was neat IPA and the positive control was a 1% (w/v) solution of DEET. After 5 min, approximately 250 4-day-old female Aedes aegypti mosquitoes were introduced into the chamber. The number of mosquitoes probing the membranes for each treatment was recorded at 2 min intervals over 20 min. The results obtained in this manner with respect to the compounds of […] are depicted in FIGS. 1-10 (labeled as Examples 16˜25), wherein each datum represents the mean of five replicate experiments. […] The % mean repellencies at 1% (w/v) are depicted in Table 2 for the compounds of Examples 1˜15, wherein R refers to the substituent on dihydronepetalactam.

Row | Compound | pest or weed control at 10000 µg/mL [%]
1 | C[C@@H]1CN(c2ccccc2)C(=O)[C@H]2[C@@H]1CC[C@@H]2C [VIIa, (4S,4aR,7S,7aR)-4,7-dimethyl-2-phenyloctahydro-1H-cyclopenta[c]pyridin-1-one] | 59.5
2 | CCCCCCCCN1C[C@@H](C)[C@H]2CC[C@H](C)[C@H]2C1=O [IVg, (4S,4aR,7S,7aR)-2-n-octyl-4,7-dimethyloctahydro-1H-cyclopenta[c]pyridin-1-one] | 98.3
3 | CCCCCN1C[C@@H](C)[C@H]2CC[C@H](C)[C@H]2C1=O [IVe, (4S,4aR,7S,7aR)-2-n-pentyl-4,7-dimethyloctahydro-1H-cyclopenta[c]pyridin-1-one] | 100
4 | C=CCN1C[C@@H](C)[C@H]2CC[C@H](C)[C@H]2C1=O [IVi, (4S,4aR,7S,7aR)-2-n-allyl-4,7-dimethyloctahydro-1H-cyclopenta[c]pyridin-1-one] | 90.6
5 | C[C@@H]1CN(C)C(=O)[C@H]2[C@@H]1CC[C@@H]2C [IVa, (4S,4aR,7S,7aR)-2,4,7-trimethyloctahydro-1H-cyclopenta[c]pyridin-1-one] | 39.6
6 | CC(C)N1C[C@@H](C)[C@H]2CC[C@H](C)[C@H]2C1=O [IVh, (4S,4aR,7S,7aR)-2-n-isopropyl-4,7-dimethyloctahydro-1H-cyclopenta[c]pyridin-1-one] | 69.4
7 | C[C@@H]1CNC(=O)[C@H]2[C@@H]1CC[C@@H]2C [V, (4S,4aR,7S,7aR)-4,7-dimethyloctahydro-1H-cyclopenta[c]pyridin-1-one] | 69.6
8 | C[C@@H]1CN(c2ccc(Br)cc2)C(=O)[C@H]2[C@@H]1CC[C@@H]2C [VIIc, (4S,4aR,7S,7aR)-2-(4-bromophenyl)-4,7-dimethyloctahydro-1H-cyclopenta[c]pyridin-1-one] | 54.1
9 | CCCN1C[C@@H](C)[C@H]2CC[C@H](C)[C@H]2C1=O [IVc, (4S,4aR,7S,7aR)-2-n-propyl-4,7-dimethyloctahydro-1H-cyclopenta[c]pyridin-1-one] | 87.9
10 | CCN1C[C@@H](C)[C@H]2CC[C@H](C)[C@H]2C1=O [IVb, (4S,4aR,7S,7aR)-2-ethyl-4,7-dimethyloctahydro-1H-cyclopenta[c]pyridin-1-one] | 96.8
11 | CCCCCCN1C[C@@H](C)[C@H]2CC[C@H](C)[C@H]2C1=O [IVf, (4S,4aR,7S,7aR)-2-n-hexyl-4,7-dimethyloctahydro-1H-cyclopenta[c]pyridin-1-one] | 99.8
12 | C#CCN1C[C@@H](C)[C@H]2CC[C@H](C)[C@H]2C1=O [IVj, (4S,4aR,7S,7aR)-2-n-propargyl-4,7-dimethyloctahydro-1H-cyclopenta[c]pyridin-1-one] | 88.1
13 | C[C@@H]1CN(c2ccc(Cl)cc2)C(=O)[C@H]2[C@@H]1CC[C@@H]2C [VIIb, (4S,4aR,7S,7aR)-2-(4-chlorophenyl)-4,7-dimethyloctahydro-1H-cyclopenta[c]pyridin-1-one] | 81.5
14 | CCCCN1C[C@@H](C)[C@H]2CC[C@H](C)[C@H]2C1=O [IVd, (4S,4aR,7S,7aR)-2-n-butyl-4,7-dimethyloctahydro-1H-cyclopenta[c]pyridin-1-one] | 86.3
